Consider 65 compounds from ChEMBL document CHEMBL1128161, “Novel prostanoid thromboxane A2 antagonists” (Bioorg Med Chem Lett, 1995).

The target of one experiment is T1, Thromboxane A2 receptor (Homo sapiens) (UniProt P21731).
T1 sequence (whole entry): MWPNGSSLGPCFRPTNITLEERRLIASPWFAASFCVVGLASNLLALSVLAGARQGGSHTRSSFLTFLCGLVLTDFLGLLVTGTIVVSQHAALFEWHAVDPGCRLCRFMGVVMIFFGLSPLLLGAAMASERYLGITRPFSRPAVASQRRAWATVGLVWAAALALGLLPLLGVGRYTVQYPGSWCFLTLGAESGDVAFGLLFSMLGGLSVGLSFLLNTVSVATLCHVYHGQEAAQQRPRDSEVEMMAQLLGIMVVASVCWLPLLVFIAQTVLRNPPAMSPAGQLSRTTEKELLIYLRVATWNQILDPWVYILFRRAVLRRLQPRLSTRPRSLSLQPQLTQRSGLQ
Description: Thromboxane A2 receptor binding affinity was evaluated, which is expressed as competition factor (CF = (IC50-test) / (IC50-standard).
With `O=C(O)CC/C=C\CC1=CCC[C@@H]1NS(=O)(=O)c1ccccc1[N+](=O)[O-]`, the CF is 40.

In the case of `O=C(O)CCC/C=C\C[C@@H]1[C@@H](CNS(=O)(=O)c2ccc(F)cc2)CC[C@H]1F`, the CF turned out to be 50.

In turn, `O=C(O)CCC/C=C\CC1=CCC[C@@H]1NS(=O)(=O)c1ccc(F)cc1` (stereo in doubt; 3d) registered a CF of 1.5.

`O=C(O)CCC/C=C\CC1=CCC[C@@H]1NS(=O)(=O)c1ccc(F)cc1` (stereo in doubt) displayed a CF of 1.5.

`O=C(O)CCCC=CCC1=CCC[C@@H]1NS(=O)(=O)c1cccc2cccnc12` registered a CF of 560.

The compound `O=C(O)CCC/C=C\C[C@H]1[C@H](F)CC[C@@H]1NS(=O)(=O)c1ccccc1` had a CF of 4.

In turn, `O=C(O)COCCCCC1=CCC[C@@H]1NS(=O)(=O)c1ccccc1[N+](=O)[O-]` displayed a CF of 130.

As to `O=C(O)CC/C=C\C[C@@H]1[C@@H](CNS(=O)(=O)c2ccc(Cl)cc2)CC[C@H]1F`, the CF was 40.

`O=C(O)CCC/C=C\CC1=CCC[C@@H]1NS(=O)(=O)c1ccc2ccccc2c1` displayed a CF of 0.3.

For the compound `O=C(O)COCCCC[C@H]1[C@H](F)CC[C@@H]1NS(=O)(=O)c1ccc(Cl)c(Cl)c1`, the CF was determined as 2.3.

`O=C(O)COCCCCC1=CCC[C@@H]1NS(=O)(=O)c1ccc(Cl)cc1` yielded a CF of 2.6.

`O=C(O)CCC/C=C\CC1=CCC[C@@H]1CNS(=O)(=O)c1ccc(F)cc1` registered a CF of 17.

In the case of `O=C(O)CC/C=C\CC1=CCC[C@@H]1CNS(=O)(=O)c1ccc(F)cc1`, the CF was 21.

In the case of `O=C(O)CCCCCCC1=CCC[C@@H]1NS(=O)(=O)c1ccc(F)cc1`, the CF was 2.7.

As to `O=C(O)CCC/C=C\C[C@H]1[C@H](F)CC[C@@H]1NS(=O)(=O)c1ccc(F)cc1F`, the CF was determined as 1.1.

`O=C(O)COCCCC[C@H]1[C@H](F)CC[C@@H]1NS(=O)(=O)c1ccc(Cl)cc1` showed a CF of 0.8.

The compound `O=C(O)CCCCCC[C@@H]1[C@@H](CNS(=O)(=O)c2ccc(F)cc2)CC[C@H]1F` had a CF of 260.

In turn, `O=C(O)CC/C=C\CC1=CCC[C@@H]1NS(=O)(=O)c1ccc(F)cc1F` displayed a CF of 14.

Consider `O=C(O)CC/C=C\C[C@@H]1[C@@H](CNS(=O)(=O)c2ccc(F)cc2)CC[C@H]1F` (stereo in doubt; form 2), for which the CF came out at 300.

With `Cc1ccc(S(=O)(=O)N[C@H]2CCC=C2C/C=C\CCCC(=O)O)cc1`, the CF amounted to 1.5.

Consider `Cc1ccc(S(=O)(=O)NC[C@H]2CC[C@@H](F)[C@@H]2C/C=C\CCC(=O)O)cc1`, for which the CF was 154.

Regarding `O=C(O)CC/C=C\CC1=CCC[C@@H]1NS(=O)(=O)c1ccc(F)cc1`, the CF is 5.5.

Regarding `O=C(O)COCCCCC1=CCC[C@@H]1NS(=O)(=O)c1ccc(Cl)c(Cl)c1`, the CF was 7.6.

`O=C(O)CCC/C=C\C[C@H]1[C@H](F)CC[C@@H]1NS(=O)(=O)c1ccc(Cl)cc1` yielded a CF of 0.3.

As to `O=C(O)COCCCCC1=CCC[C@@H]1NS(=O)(=O)c1ccc(F)cc1`, the CF is 13.

`O=C(O)CC/C=C\CC1=CCC[C@@H]1NS(=O)(=O)c1ccccc1` registered a CF of 12.

`Cc1ccc(S(=O)(=O)N[C@H]2CC[C@@H](F)[C@@H]2C/C=C\CCC(=O)O)cc1` registered a CF of 5.1.

Consider `O=C(O)COCCCCC1=CCC[C@@H]1NS(=O)(=O)c1ccc(F)cc1F`, for which the CF is 22.

In turn, `O=C(O)CC/C=C\C[C@H]1[C@H](F)CC[C@@H]1NS(=O)(=O)c1ccccc1[N+](=O)[O-]` came in with a CF of 370.

Compound `O=C(O)CCCCC[C@@H]1[C@@H](CNS(=O)(=O)c2ccc(F)cc2)CC[C@H]1F` yielded a CF of 380.

Turning to `Cc1ccc(S(=O)(=O)N[C@H]2CCC=C2CCCCOCC(=O)O)cc1`, the CF is 11.

On to `O=C(O)CCC/C=C\C[C@H]1[C@H](F)CC[C@@H]1NS(=O)(=O)c1ccc(Cl)c(Cl)c1`, for which the CF came out at 0.5.

Consider `O=C(O)CCC/C=C\CC1=CCC[C@@H]1NS(=O)(=O)c1ccc(F)cc1F`, for which the CF is 1.5.

Take `O=C(O)CC/C=C\C[C@@H]1[C@@H](CNS(=O)(=O)c2ccc(F)cc2)CC[C@@H]1F`: the CF was found to be 11.

For the compound `O=C(O)CC/C=C\C[C@H]1[C@H](F)CC[C@@H]1NS(=O)(=O)c1ccc(F)cc1`, the CF came to 4.3.

Take `O=C(O)CCCCCC[C@H]1[C@H](F)CC[C@@H]1NS(=O)(=O)c1ccc(F)cc1`: the CF was found to be 7.5.

For `O=C(O)CC/C=C\C[C@H]1[C@H](F)CC[C@@H]1NS(=O)(=O)c1ccc(Cl)cc1`, the CF stood at 1.3.

`O=C(O)CCC/C=C\CC1=CCC[C@@H]1NS(=O)(=O)c1ccccc1` yielded a CF of 3.5.

`O=C(O)CCC/C=C\C[C@H]1[C@H](F)CC[C@@H]1NS(=O)(=O)c1ccc(F)cc1` had a CF of 1.5.

`O=C(O)CC/C=C/C[C@H]1[C@H](F)CC[C@@H]1NS(=O)(=O)c1ccc(F)cc1F` gave a CF of 6.6.

`O=C(O)COCCCCC1=CCC[C@@H]1NS(=O)(=O)c1ccccc1` displayed a CF of 26.

In turn, `O=C(O)CC/C=C\CC1=CCC[C@@H]1NS(=O)(=O)c1ccc(Cl)c(Cl)c1` gave a CF of 13.

As for `O=C(O)CC/C=C\CC1=CCC[C@@H]1NS(=O)(=O)c1ccc(Cl)cc1`, the CF was determined as 2.8.

`O=C(O)CCC/C=C\C[C@H]1[C@H](F)CC[C@@H]1NS(=O)(=O)c1ccc2ccccc2c1` came in with a CF of 0.3.

The compound `Cc1ccc(S(=O)(=O)N[C@H]2CC[C@@H](F)[C@@H]2C/C=C\CCCC(=O)O)cc1` registered a CF of 1.5.

`O=C(O)CCC/C=C\CC1=CCC[C@@H]1NS(=O)(=O)c1ccc(Cl)cc1`: the CF turned out to be 0.3.

The compound `Cc1ccc(S(=O)(=O)N[C@H]2CCC=C2C/C=C\CCC(=O)O)cc1` registered a CF of 7.4.

In turn, `O=C(O)CC/C=C\C[C@H]1[C@H](F)CC[C@@H]1NS(=O)(=O)c1ccccc1` returned a CF of 10.

In the case of `O=C(O)CCC/C=C\CC1=CCC[C@@H]1NS(=O)(=O)c1ccc(Cl)c(Cl)c1`, the CF turned out to be 1.1.

The compound `O=C(O)CCC/C=C\C[C@H]1[C@H](F)CC[C@@H]1NS(=O)(=O)c1cccc2cccnc12` had a CF of 340.

In the case of `O=C(O)CCCC=CC[C@H]1[C@H](F)CC[C@@H]1NS(=O)(=O)c1ccc(F)cc1`, the CF is 1.5.

In turn, `O=C(O)COCCCC[C@H]1[C@H](F)CC[C@@H]1NS(=O)(=O)c1ccc(F)cc1F` displayed a CF of 30.

`O=C(O)COCCCC[C@H]1[C@H](F)CC[C@@H]1NS(=O)(=O)c1ccccc1[N+](=O)[O-]` had a CF of 330.

In turn, `O=C(O)CCC/C=C\CC1=CCC[C@@H]1NS(=O)(=O)c1ccccc1[N+](=O)[O-]` showed a CF of 6.6.

The compound `O=C(O)CCC/C=C\C[C@H]1[C@H](F)CC[C@@H]1NS(=O)(=O)c1ccccc1[N+](=O)[O-]` gave a CF of 10.

Compound `O=C(O)CC/C=C\C[C@@H]1[C@@H](CNS(=O)(=O)c2ccc(F)cc2)CC[C@H]1F` (stereo in doubt; form 1) had a CF of 300.

A further experiment has as its target T1, Thromboxane A2 receptor (Homo sapiens). Description: Thromboxane A2 receptor binding affinity was evaluated, which is expressed as competition factor (CF = (IC50-test) / (IC50-standard); not parallel.
The compound `Cc1ccc(S(=O)(=O)N[C@H]2CC[C@@H](F)[C@@H]2CCCCOCC(=O)O)cc1` registered a CF of 3.5.

Regarding `O=C(O)COCCCC[C@H]1[C@H](F)CC[C@@H]1NS(=O)(=O)c1ccc(F)cc1`, the CF is 2.7.

Compound `O=C(O)COCCCCC1=CCC[C@@H]1CNS(=O)(=O)c1ccc(F)cc1` registered a CF of 0.5.

On to `O=C(O)COCCCC[C@@H]1[C@@H](CNS(=O)(=O)c2ccc(F)cc2)CC[C@H]1F`, for which the CF is 6.7.

Consider `O=C(O)CC/C=C\C[C@@H]1[C@@H](CNS(=O)(=O)c2ccc(Cl)cc2)CC[C@@H]1F`, for which the CF amounted to 1.8.

For the compound `O=C(O)CC/C=C\C[C@@H]1[C@@H](CNS(=O)(=O)c2ccc(F)cc2)CC[C@H]1F`, the CF is 11.

Turning to `Cc1ccc(S(=O)(=O)NC[C@H]2CC[C@H](F)[C@@H]2C/C=C\CCC(=O)O)cc1`, the CF turned out to be 6.

Compound `O=C(O)COCCCC[C@H]1[C@H](F)CC[C@@H]1NS(=O)(=O)c1ccccc1` returned a CF of 9.1.

Another experiment is filed under the species Homo sapiens. As to the kind of experiment: Compound was evaluated for the inhibition of platelet aggregation, assessed turbidimetrically in citreated human platelet rich plasma (PRP); NE means not effective. The experiment is classed as functional, organism-based.
For `O=C(O)COCCCC[C@H]1[C@H](F)CC[C@@H]1NS(=O)(=O)c1ccc(Cl)c(Cl)c1`, the IC50 entry is “Not Active”.

Regarding `O=C(O)COCCCCC1=CCC[C@@H]1NS(=O)(=O)c1ccc(Cl)cc1`, the IC50 result is reported as “Not Active”.

As for `O=C(O)COCCCC[C@H]1[C@H](F)CC[C@@H]1NS(=O)(=O)c1ccc(Cl)cc1`, the IC50 result is “Not Active”.

In the case of `O=C(O)CCC/C=C\CC1=CCC[C@@H]1NS(=O)(=O)c1ccc(F)cc1F`, the IC50 result is listed as “Not Active”.

On to `O=C(O)CC/C=C\C[C@@H]1[C@@H](CNS(=O)(=O)c2ccc(Cl)cc2)CC[C@@H]1F`, for which the IC50 entry is listed as “Not Active”.

`O=C(O)CCC/C=C\CC1=CCC[C@@H]1NS(=O)(=O)c1ccc(Cl)cc1`: the IC50 entry is recorded as “Not Active”.

Turning to `Cc1ccc(S(=O)(=O)NC[C@H]2CC[C@H](F)[C@@H]2C/C=C\CCC(=O)O)cc1`, the IC50 entry is on record as “Not Active”.

In the case of `O=C(O)CCC/C=C\CC1=CCC[C@@H]1NS(=O)(=O)c1ccc(Cl)c(Cl)c1`, the IC50 result was “Not Active”.

The next experiment addresses T1, Thromboxane A2 receptor (Homo sapiens). As to the kind of experiment: Thromboxane A2 receptor binding affinity was evaluated as competition factor (CF = (IC50-test) / (IC50-standard).
`O=C(O)CC/C=C\C[C@H]1[C@H](F)CC[C@@H]1NS(=O)(=O)c1ccc(Cl)c(Cl)c1` registered a CF of 1.4.
